Drawing on ChEMBL document CHEMBL4004877, “Synthesis and biological evaluation of chalcone, dihydrochalcone, and 1,3-diarylpropane analogs as anti-inflammatory agents” (Bioorg Med Chem Lett, 2017), this text covers viability, IC50 and inhibition for ten compounds.

A short description of series [1]: Cytotoxicity against LPS-stimulated mouse RAW264.7 cells assessed as cell viability at 10 ug/ml after 24 hrs by MTT assay relative to control. The class given is cell-based. The settings on record: LPS-stimulated RAW264.7 cells, read-out: Activity. A general note: Formazan colour is commonly taken as a measure of viable cells.
Series [2] deals with RAW264.7. As to the kind of experiment: Antiinflammatory activity in mouse RAW264.7 cells assessed as inhibition of LPS induced iNOS-dependent nitric oxide production after 24 hrs by Griess assay. The following applies: RAW264.7, 24 h. The class given is functional, cell-based.
A short description of series [3]: Cytotoxicity against LPS-stimulated mouse RAW264.7 cells assessed as cell viability at 1.25 ug/ml after 24 hrs by MTT assay relative to control. The settings on record: LPS-stimulated RAW264.7 cells, read-out: Activity. The class given is cell-based.
In series [4] the test system is RAW264.7. As to the kind of experiment: Antiinflammatory activity in mouse RAW264.7 cells assessed as inhibition of LPS induced iNOS-dependent nitric oxide production at 2.5 ug/ml after 24 hrs by Griess assay relative to control. The following applies: RAW264.7, 24 h. The class given is functional. In general terms: The Griess reaction detects nitrite, a stable product of nitric oxide.

The subject of series [5] is RAW264.7. As to the kind of experiment: Antiinflammatory activity in mouse RAW264.7 cells assessed as inhibition of LPS induced iNOS-dependent nitric oxide production at 10 ug/ml after 24 hrs by Griess assay relative to control. The class given is functional. The following applies: RAW264.7, 24 h.
Series [6] in a line: Cytotoxicity against LPS-stimulated mouse RAW264.7 cells assessed as cell viability at 2.5 ug/ml after 24 hrs by MTT assay relative to control. The settings on record: LPS-stimulated RAW264.7 cells, read-out: Activity. The class given is cell-based.
The nature of series [7]: Cytotoxicity against LPS-stimulated mouse RAW264.7 cells assessed as cell viability at 5 ug/ml after 24 hrs by MTT assay relative to control. The class given is cell-based. The settings on record: LPS-stimulated RAW264.7 cells, read-out: Activity.
Series [8] deals with RAW264.7. As to the kind of experiment: Antiinflammatory activity in mouse RAW264.7 cells assessed as inhibition of LPS induced iNOS-dependent nitric oxide production at 5 ug/ml after 24 hrs by Griess assay relative to control. The class given is functional. The settings on record: RAW264.7, 24 h.
Series [9] relates to RAW264.7. As to the kind of experiment: Antiinflammatory activity in mouse RAW264.7 cells assessed as inhibition of LPS induced iNOS-dependent nitric oxide production at 1.25 ug/ml after 24 hrs by Griess assay relative to control. The class given is functional. The settings on record: RAW264.7, 24 h.

≈ marks a conversion by molar mass, not a printed value.

As to `COc1ccc(CCCc2ccc(O)c(OC)c2)cc1`, the viability at 24 h, 10 ug/ml in series [1] was determined as 66.3%. For the same compound, the IC50 (commonly the concentration needed to halve the response being measured) in series [2] was 5.08 µg/mL (≈ 18.7 µM). Moreover, in series [3], the viability at 24 h, 1.25 ug/ml was determined as 99.2%. In [4], the inhibition (commonly the relative decrease from the control value, in per cent) at 2.5 µg/mL came to 42.9%. Moreover, the inhibition at 10 µg/mL in [5] came out at 89.8%. Also, the viability at 24 h, 2.5 ug/ml in series [6] worked out at 97.8%. Further, the viability at 24 h, 5 ug/ml in [7] came out at 96.4%. Further, the inhibition at 5 µg/mL in series [8] worked out at 49%. Further, the inhibition at 1.25 µg/mL in [9] was determined as 35.9%.

`COc1ccc(C(=O)CCc2ccc3c(c2)OCO3)c(OC)c1`: in series [1], the viability at 24 h, 10 ug/ml was 81%. Also, the IC50 in [2] was more than 10 µg/mL. In addition, in [3], the viability at 24 h, 1.25 ug/ml is 87.4%. For the same compound, the inhibition at 2.5 µg/mL in [4] worked out at 4.5%. Besides, the inhibition at 10 µg/mL in series [5] stood at 9.8%. Moreover, the viability at 24 h, 2.5 ug/ml in [6] was found to be 87.2%. Further, the viability at 24 h, 5 ug/ml in series [7] amounted to 83.2%. In series [8], the inhibition at 5 µg/mL came to 6.6%. Also, the inhibition at 1.25 µg/mL in [9] is 0.2%.

For `COc1ccc(CCCc2ccc(OC)cc2O)cc1`, the viability at 24 h, 10 ug/ml in series [1] came out at 73.8%. Moreover, in [2], the 50% inhibitory concentration (IC50) was found to be 6.37 µg/mL (≈ 23.4 µM). Besides, in series [3], the viability at 24 h, 1.25 ug/ml was determined as 98.9%. Besides, the inhibition at 2.5 µg/mL in series [4] amounted to 30.5%. Further, in series [5], the inhibition at 10 µg/mL came to 72.5%. In series [6], the viability at 24 h, 2.5 ug/ml was 96.8%. In series [7], the viability at 24 h, 5 ug/ml was found to be 94.6%. In series [8], the inhibition at 5 µg/mL worked out at 37.8%. Further, the inhibition at 1.25 µg/mL in series [9] worked out at 25.7%.

Turning to `COc1ccc(CCCc2ccc(OC)c(OC)c2OC)c(O)c1`, in [1], the viability at 24 h, 10 ug/ml was 36.7%. Also, in series [2], the IC50 was 4.03 µg/mL (≈ 12.1 µM). Further, the viability at 24 h, 1.25 ug/ml in [3] is 96.3%. The inhibition at 2.5 µg/mL in [4] turned out to be 34.9%. The inhibition at 10 µg/mL in series [5] turned out to be 68.1%. In addition, in series [6], the viability at 24 h, 2.5 ug/ml amounted to 95.5%. For the same compound, the viability at 24 h, 5 ug/ml in [7] was found to be 84.5%. Further, the inhibition at 5 µg/mL in [8] was found to be 56.8%. The inhibition at 1.25 µg/mL in series [9] is 33.3%.

As for `COc1ccc(CCCc2cccc(O)c2)cc1OC`, the viability at 24 h, 10 ug/ml in series [1] came to 78.8%. The IC50 in [2] is more than 10 µg/mL. In addition, in series [3], the viability at 24 h, 1.25 ug/ml stood at 99.9%. Besides, the inhibition at 2.5 µg/mL in series [4] worked out at 5.4%. Further, the inhibition at 10 µg/mL in [5] turned out to be 44.7%. Besides, the viability at 24 h, 2.5 ug/ml in series [6] was found to be 98.5%. Also, in series [7], the viability at 24 h, 5 ug/ml worked out at 94.8%. For the same compound, the inhibition at 5 µg/mL in series [8] is 15.4%. Besides, in [9], the inhibition at 1.25 µg/mL worked out at 13.9%.

In the case of `COc1cccc(CCC(=O)c2cccc(O)c2)c1OC`, the viability at 24 h, 10 ug/ml in series [1] was 91.4%. The IC50 in series [2] was more than 10 µg/mL. Further, the viability at 24 h, 1.25 ug/ml in series [3] was 96.4%. In series [4], the inhibition at 2.5 µg/mL was determined as 14.1%. Also, the inhibition at 10 µg/mL in series [5] was 47.5%. Moreover, the viability at 24 h, 2.5 ug/ml in series [6] is 94%. Besides, the viability at 24 h, 5 ug/ml in series [7] came out at 93.4%. The inhibition at 5 µg/mL in [8] came out at 25%. The inhibition at 1.25 µg/mL in series [9] is 7.5%.

As to `COc1cc(CCCc2cccc(OC)c2OC)ccc1O`, the viability at 24 h, 10 ug/ml in series [1] turned out to be 68.9%. Besides, the half-inhibitory concentration (IC50) in series [2] was determined as 2.57 µg/mL (≈ 8.5 µM). In [3], the viability at 24 h, 1.25 ug/ml was found to be 99.6%. Besides, the inhibition at 2.5 µg/mL in series [4] amounted to 49.5%. The inhibition at 10 µg/mL in series [5] worked out at 89.4%. Also, the viability at 24 h, 2.5 ug/ml in series [6] was found to be 97.8%. Also, the viability at 24 h, 5 ug/ml in series [7] is 97%. In [8], the inhibition at 5 µg/mL stood at 60.7%. Moreover, in series [9], the inhibition at 1.25 µg/mL was determined as 43.3%.

On to `COc1ccc(C(=O)CCc2ccc(OC)c(OC)c2)c(O)c1`, for which the viability at 24 h, 10 ug/ml in [1] was 67.5%. For the same compound, in series [2], the half-maximal inhibitory concentration (IC50) worked out at 7.86 µg/mL (≈ 24.8 µM). The viability at 24 h, 1.25 ug/ml in series [3] is 91.8%. In series [4], the inhibition at 2.5 µg/mL worked out at 23.9%. In addition, in [5], the inhibition at 10 µg/mL worked out at 56.2%. Moreover, the viability at 24 h, 2.5 ug/ml in [6] came out at 89%. Besides, the viability at 24 h, 5 ug/ml in series [7] stood at 75.2%. In addition, the inhibition at 5 µg/mL in [8] was found to be 38.3%. In [9], the inhibition at 1.25 µg/mL came to 18.4%.

As to `COc1ccc(C(=O)CCc2ccc(OC)c(OC)c2OC)c(O)c1`, the viability at 24 h, 10 ug/ml in [1] worked out at 94%. The half-maximal inhibitory concentration (IC50) in series [2] is more than 10 µg/mL. Also, in series [3], the viability at 24 h, 1.25 ug/ml came to 101%. The inhibition at 2.5 µg/mL in [4] was found to be 2.8%. In addition, in series [5], the inhibition at 10 µg/mL was 10.3%. For the same compound, in series [6], the viability at 24 h, 2.5 ug/ml came out at 94.4%. The viability at 24 h, 5 ug/ml in series [7] was found to be 94.8%. The inhibition at 5 µg/mL in [8] is 7.5%. The inhibition at 1.25 µg/mL in series [9] was 0.9%.

In the case of `COc1ccc(CCCc2ccc(OC)c(OC)c2)cc1`, the viability at 24 h, 10 ug/ml in [1] turned out to be 95.1%. Further, the half-maximal inhibitory concentration (IC50) in series [2] is 8.69 µg/mL (≈ 30.3 µM). The viability at 24 h, 1.25 ug/ml in [3] is 100%. Also, in series [4], the inhibition at 2.5 µg/mL turned out to be 15.1%. Also, in series [5], the inhibition at 10 µg/mL worked out at 55.4%. Moreover, the viability at 24 h, 2.5 ug/ml in series [6] is 100%. Moreover, in [7], the viability at 24 h, 5 ug/ml worked out at 96.9%. The inhibition at 5 µg/mL in [8] amounted to 28.6%. The inhibition at 1.25 µg/mL in series [9] was 12.9%.
